This note sets out measurements from ChEMBL document CHEMBL5727654 (2020).

The assay deals with T1, Signal transducer and activator of transcription 1-alpha/beta (Homo sapiens, UniProt P42224).
T1 sequence (P42224 whole entry): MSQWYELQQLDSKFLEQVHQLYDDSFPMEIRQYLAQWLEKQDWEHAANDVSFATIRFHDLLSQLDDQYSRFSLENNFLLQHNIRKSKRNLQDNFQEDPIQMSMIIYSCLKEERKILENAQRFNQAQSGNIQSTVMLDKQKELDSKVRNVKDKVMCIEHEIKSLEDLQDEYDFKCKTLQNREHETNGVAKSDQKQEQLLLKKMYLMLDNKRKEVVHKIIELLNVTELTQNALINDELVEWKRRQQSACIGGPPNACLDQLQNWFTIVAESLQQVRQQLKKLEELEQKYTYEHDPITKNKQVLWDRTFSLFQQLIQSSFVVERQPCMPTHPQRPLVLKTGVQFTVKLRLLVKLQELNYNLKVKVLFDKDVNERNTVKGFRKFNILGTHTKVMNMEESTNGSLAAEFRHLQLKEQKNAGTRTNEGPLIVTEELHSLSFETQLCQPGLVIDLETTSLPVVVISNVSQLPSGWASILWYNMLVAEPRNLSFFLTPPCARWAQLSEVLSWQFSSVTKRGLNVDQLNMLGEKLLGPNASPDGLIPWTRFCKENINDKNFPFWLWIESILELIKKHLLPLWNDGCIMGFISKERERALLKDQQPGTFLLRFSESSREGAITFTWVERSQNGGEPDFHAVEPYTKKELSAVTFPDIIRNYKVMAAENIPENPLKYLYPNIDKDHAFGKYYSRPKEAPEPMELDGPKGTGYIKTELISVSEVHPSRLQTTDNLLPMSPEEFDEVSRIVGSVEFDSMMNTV
The assay is described as follows: Bioassay Evaluation: Compound samples (in 3-5 mg quantities) were evaluated in a variety of assays. All compound submissions were fully characterized (1H, 13C, IR, HRMS), satisfied purity criteria (≥95% LC/MC, ELS). In kind it is single protein.

Take `COc1ccc(C2=Nn3c(nnc3-c3[nH]nc4c3CCC4)SC2)cc1`: the half-maximal inhibitory concentration (IC50) (commonly the point on the concentration scale where inhibition reaches its midpoint) amounted to 40.6 µM.
